Experimental data reported in ChEMBL document CHEMBL4007501, “Synthesis and antitumor evaluation of 2,3-diarylbenzofuran derivatives on HeLa cells” (Bioorg Med Chem Lett, 2017).
Calls of active or inactive are those of the source. No cut-off for these calls is given here.

What was measured:
HeLa [1] = assay: Cytotoxicity against human HeLa cells assessed as decrease in cell viability after 48 hrs by MTT assay; format: functional, cell-based
HeLa [2] = assay: Cell cycle arrest in human HeLa cells assessed as accumulation at G2 phase at 10 uM after 48 hrs by propidium iodide staining-based flow cytometric analysis (reference value: 4.45%); format: functional
HeLa [3] = assay: Cell cycle arrest in human HeLa cells assessed as accumulation at S phase at 30 uM after 48 hrs by propidium iodide staining-based flow cytometric analysis (reference value: 29.20%); format: functional
HeLa [4] = assay: Induction of apoptosis in human HeLa cells assessed as late apoptotic cells at 30 uM after 24 hrs by annexin V/FITC-propidium iodide staining-based flow cytometric method (reference value: 0.987%); format: functional
HeLa [5] = assay: Cell cycle arrest in human HeLa cells assessed as accumulation at G2 phase at 20 uM after 48 hrs by propidium iodide staining-based flow cytometric analysis (reference value: 4.45%); format: functional
HeLa [6] = assay: Induction of apoptosis in human HeLa cells assessed as late apoptotic cells at 20 uM after 24 hrs by annexin V/FITC-propidium iodide staining-based flow cytometric method (reference value: 0.987%); format: functional
HeLa [7] = assay: Cytotoxicity against human HeLa cells assessed as decrease in cell viability at 20 uM after 48 hrs by MTT assay relative to control; format: functional
HeLa [8] = assay: Upregulation of Bak expression in human HeLa cells at 10 to 30 uM after 24 hrs by Western blot method; format: functional, cell-based
HeLa [9] = assay: Induction of apoptosis in human HeLa cells assessed as late apoptotic cells at 10 uM after 24 hrs by annexin V/FITC-propidium iodide staining-based flow cytometric method (reference value: 0.987%); format: functional
HeLa [10] = assay: Cytotoxicity against human HeLa cells assessed as decrease in cell viability at 10 uM after 48 hrs by MTT assay relative to control; format: functional
HeLa [11] = assay: Induction of apoptosis in human HeLa cells assessed as viable cells at 30 uM after 24 hrs by annexin V/FITC-propidium iodide staining-based flow cytometric method (reference value: 95.4%); format: functional; details: read-out: Activity
HeLa [12] = assay: Cell cycle arrest in human HeLa cells assessed as accumulation at G1 phase at 20 uM after 48 hrs by propidium iodide staining-based flow cytometric analysis (reference value: 66.35%); format: functional
HeLa [13] = assay: Induction of apoptosis in human HeLa cells assessed as necrotic cells at 20 uM after 24 hrs by annexin V/FITC-propidium iodide staining-based flow cytometric method (reference value: 1.81%); format: functional
HeLa [14] = assay: Induction of apoptosis in human HeLa cells assessed as necrotic cells at 10 uM after 24 hrs by annexin V/FITC-propidium iodide staining-based flow cytometric method (reference value: 1.81%); format: functional
HeLa [15] = assay: Cell cycle arrest in human HeLa cells assessed as accumulation at G2 phase at 30 uM after 48 hrs by propidium iodide staining-based flow cytometric analysis (reference value: 4.45%); format: functional
HeLa [16] = assay: Cell cycle arrest in human HeLa cells assessed as accumulation at S phase at 20 uM after 48 hrs by propidium iodide staining-based flow cytometric analysis (reference value: 29.20%); format: functional
HeLa [17] = assay: Downregulation of Bcl-xL expression in human HeLa cells at 10 to 30 uM after 24 hrs by Western blot method; format: functional, cell-based
HeLa [18] = assay: Induction of apoptosis in human HeLa cells assessed as early apoptotic cells at 30 uM after 24 hrs by annexin V/FITC-propidium iodide staining-based flow cytometric method (reference value: 1.76%); format: functional
HeLa [19] = assay: Induction of apoptosis in human HeLa cells assessed as viable cells at 20 uM after 24 hrs by annexin V/FITC-propidium iodide staining-based flow cytometric method (reference value: 95.4%); format: functional; details: read-out: Activity
HeLa [20] = assay: Cell cycle arrest in human HeLa cells assessed as accumulation at G1 phase at 10 uM after 48 hrs by propidium iodide staining-based flow cytometric analysis (reference value: 66.35%); format: functional
HeLa [21] = assay: Induction of apoptosis in human HeLa cells assessed as viable cells at 10 uM after 24 hrs by annexin V/FITC-propidium iodide staining-based flow cytometric method (reference value: 95.4%); format: functional; details: read-out: Activity
HeLa [22] = assay: Induction of apoptosis in human HeLa cells assessed as necrotic cells at 30 uM after 24 hrs by annexin V/FITC-propidium iodide staining-based flow cytometric method (reference value: 1.81%); format: functional
HeLa [23] = assay: Upregulation of Bim expression in human HeLa cells at 10 to 30 uM after 24 hrs by Western blot method; format: functional, cell-based
HeLa [24] = assay: Cell cycle arrest in human HeLa cells assessed as accumulation at S phase at 10 uM after 48 hrs by propidium iodide staining-based flow cytometric analysis (reference value: 29.20%); format: functional
HeLa [25] = assay: Induction of apoptosis in human HeLa cells assessed as early apoptotic cells at 10 uM after 24 hrs by annexin V/FITC-propidium iodide staining-based flow cytometric method (reference value: 1.76%); format: functional
HeLa [26] = assay: Induction of apoptosis in human HeLa cells assessed as early apoptotic cells at 20 uM after 24 hrs by annexin V/FITC-propidium iodide staining-based flow cytometric method (reference value: 1.76%); format: functional
HeLa [27] = assay: Downregulation of Bcl-2 expression in human HeLa cells at 10 to 30 uM after 24 hrs by Western blot method; format: functional, cell-based
HeLa [28] = assay: Cell cycle arrest in human HeLa cells assessed as accumulation at G1 phase at 30 uM after 48 hrs by propidium iodide staining-based flow cytometric analysis (reference value: 66.35%); format: functional
P388 = assay: Cytotoxicity against mouse P388 cells assessed as growth inhibition; format: functional, cell-based
MCF7 = assay: Cytotoxicity against human MCF7 cells assessed as decrease in cell viability by MTT assay; format: functional, cell-based
HepG2 = assay: Cytotoxicity against human HepG2 cells assessed as decrease in cell viability by MTT assay; format: functional, cell-based

Oc1ccc(-c2c(-c3ccc4ccccc4c3)oc3cc(O)ccc23)c(O)c1
IC50 (HeLa [1]): 21.2 µM

Oc1ccc(-c2c(-c3ccc(Cl)cc3)oc3cc(O)ccc23)c(O)c1
IC50 (HeLa [1]): 32.7 µM

CC[C@@]1(O)C(=O)OCc2c1cc1n(c2=O)Cc2cc3cc(O)ccc3nc2-1 [HYDROXYCAMPTOTHECIN]
IC50 (HeLa [1]): 10 µM

Oc1ccc(-c2c(-c3cccc(Br)c3)oc3cc(O)ccc23)c(O)c1
IC50 (HeLa [1]): 26.9 µM

Oc1ccc(-c2c(-c3ccccc3Br)oc3cc(O)ccc23)c(O)c1
IC50 (HeLa [1]): > 100 µM

Cc1ccccc1-c1oc2cc(O)ccc2c1-c1ccc(O)cc1O
IC50 (HeLa [1]): 47.5 µM

Oc1ccc(-c2c(-c3ccc(Br)cc3)oc3cc(O)ccc23)c(O)c1
IC50 (HeLa [1]): 36.7 µM

Cc1ccc(-c2oc3cc(O)ccc3c2-c2ccc(O)cc2O)cc1
IC50 (HeLa [1]): 29.2 µM

COc1cccc(-c2c(-c3ccccc3)oc3c(OC)cccc23)c1O
IC50 (HeLa [1]): 57.8 µM

Oc1ccc(-c2c(-c3ccccc3)oc3cc(O)ccc23)c(O)c1
IC50 (HeLa [1]): 29.7 µM

Cc1cccc(-c2oc3cc(O)ccc3c2-c2ccc(O)cc2O)c1
Activity (HeLa [2]): 7.56% | Activity (HeLa [3]): 31.82% | Activity (HeLa [4]): 36.2% | Activity (HeLa [5]): 6.31% | Activity (HeLa [6]): 18.9% | Activity (HeLa [7]): 65% | Activity (HeLa [8]): Active | Activity (HeLa [9]): 7.26% | Activity (HeLa [10]): 30% | viability at 30 µM (HeLa [11]): 42.1% | Activity (HeLa [12]): 63.54% | Activity (HeLa [13]): 3.08% | IC50 (HeLa [1]): 13.4 µM | Activity (HeLa [14]): 1.97% | Activity (HeLa [15]): 7.1% | Activity (HeLa [16]): 30.15% | Activity (HeLa [17]): Active | Activity (HeLa [18]): 10.3% | viability at 20 µM (HeLa [19]): 69.5% | Activity (HeLa [20]): 70.88% | viability at 10 µM (HeLa [21]): 82.7% | Activity (HeLa [22]): 11.5% | Activity (HeLa [23]): Active | Activity (HeLa [24]): 21.56% | Activity (HeLa [25]): 8.05% | Activity (HeLa [26]): 8.57% | Activity (HeLa [27]): Active | Activity (HeLa [28]): 61.08%

Oc1ccc(-c2c(-c3cccnc3)oc3cc(O)ccc23)c(O)c1
IC50 (HeLa [1]): 19.9 µM

O=C1c2c(O)cc(O)cc2-c2c(-c3ccc(O)cc3)oc3cc(O)cc1c23
IC50 (P388): 13.2 µM

COc1cccc(-c2oc3cc(O)ccc3c2-c2ccc(O)cc2O)c1
IC50 (HeLa [1]): 29.9 µM

COc1ccc(-c2c(-c3ccccc3)oc3cc(OC)ccc23)c(O)c1
IC50 (HeLa [1]): 28.9 µM

COc1ccc(-c2oc3cc(O)ccc3c2-c2ccc(O)cc2O)cc1
IC50 (HeLa [1]): 13.7 µM

Oc1ccc(-c2c(-c3ccc(F)cc3)oc3cc(O)ccc23)c(O)c1
IC50 (HeLa [1]): 28.3 µM

Oc1ccc(-c2oc3cc(O)ccc3c2-c2ccc(O)cc2O)cc1
IC50 (HeLa [1]): 32 µM

COc1ccc(/C=C/c2cc(OC)c3c(-c4cc(OC)cc(OC)c4)c(-c4ccc(OC)cc4)oc3c2)cc1
IC50 (MCF7): 0.85 µM | IC50 (HepG2): 0.24 µM
